Laboratory results reported in patent publication US20110190365A1, “Insecticidal 4-phenyl-1H-pyrazoles” (Bayer Crop Science AG, priority 2008, published 2011).

Test: log P by HPLC on a reversed-phase column (C18), EEC Directive 79/831 Annex V.A8
Assay type: physicochemical
Conditions: for chromatographic logP: read-out: log P (HCOOH)
Procedure: The stated log P values were determined in accordance with EEC Directive 79/831 Annex V.A8 by HPLC (High Performance Liquid Chromatography) using a reversed-phase column (C18).

[1] = HPLC, reversed-phase C18, mobile phase with formic acid
[2] = HCOOH, Table 4, compounds of formula I-A-Q4

Structure (SMILES)	log P (HCOOH) (HCOOH)	further results
Cc1cc(-n2nc(C(F)(F)F)c(-c3ccc(Br)cc3)c2N)ccc1C(=O)NCC(F)(F)C(F)F [I-A-Q2-303]	I-A-Q2-303: log P (HCOOH): 3.70	–
COC(C)c1nn(-c2ccc(C(=O)NCC(F)(F)C(F)F)c(C)c2)c(N)c1-c1cc(Cl)cc(C(F)(F)F)c1 (centres unmarked) [I-A-Q2-291]	I-A-Q2-291: log P (HCOOH): 3.84	–
Cc1cc(-n2nc(C(F)(F)F)c(-c3cc(Cl)cc(Cl)c3)c2[S+](C)[O-])ccc1C(=O)NCc1ccccn1 (centres unmarked) [I-A-Q2-063, 4-[4-(3,5-Dichlorophenyl)-5-methanesulphinyl-3-trifluoromethylpyrazol-1-yl]-2-methyl-N-pyridin-2-ylmethylbenzamide]	I-A-Q2-063: log P (HCOOH): 3.11	chromatographic logP [1]: 3.11
CNC(=O)c1ccc(-n2nc(C(F)(F)F)c(-c3ccc(Cl)cc3)c2N)cc1 [I-A-Q2-195]	I-A-Q2-195: log P (HCOOH): 2.96	–
CCCNC(=O)c1ccc(-n2nc(C(F)(F)F)c(-c3cc(Cl)cc(Cl)c3)c2N)cc1 [I-A-Q2-151]	I-A-Q2-151: log P (HCOOH): 4.06	–
Cc1cc(-n2nc(C)c(-c3ccc(F)cc3Cl)c2N)ccc1C(=O)NCC(F)(F)C(F)F [I-A-Q2-327]	I-A-Q2-327: log P (HCOOH): 2.73	–
CC(NC(=O)c1ccc(-n2cc(-c3cc(Cl)cc(Cl)c3)c(C(F)(F)F)n2)c2ccccc12)C(F)(F)F (centres unmarked) [I-B-Q2-001]	–	log P (HCOOH) (HCOOH, Table 6, compounds of formula I-B-Q2): I-B-Q2-001: log P (HCOOH): 4.74
Cc1cc(-n2nc(C(F)(F)F)c(-c3cc(Cl)cc(Cl)c3)c2N)ccc1C(=O)NCCc1ncc(C(F)(F)F)cc1Cl [I-A-Q2-232]	I-A-Q2-232: log P (HCOOH): 4.95	–
Cc1cc(-n2nc(C(F)(F)F)c(-c3cc(Cl)cc(Cl)c3)c2N)ccc1C(=O)NC1CCOCC1 [I-A-Q2-250]	I-A-Q2-250: log P (HCOOH): 3.68	–
Nc1c(-c2cc(F)cc(Cl)c2)c(C(F)(F)F)nn1-c1ccc(Cl)cn1 [I-A-Q4-040]	–	log P (HCOOH) [2]: I-A-Q4-040: log P (HCOOH): 5.29
Nc1c(-c2cccc(Cl)c2)c(C(F)(F)F)nn1-c1ccc(C(=O)NC2CC2)cc1 [I-A-Q2-091]	I-A-Q2-091: log P (HCOOH): 3.09	–
Cc1cc(-n2nc(CC(C)C)c(-c3ccc(Cl)cc3)c2N)ccc1C(=O)NCc1ccccn1 [I-A-Q2-382]	I-A-Q2-382: log P (HCOOH): 2.84	–
Cc1cc(-n2nc(C(F)F)c(-c3ccc(Cl)cc3)c2N)ccc1C(=O)NCc1ccccn1 [I-A-Q2-362]	I-A-Q2-362: log P (HCOOH): 2.27	–
CCC(NC(=O)c1ccc(-n2nc(C(F)(F)F)c(-c3cc(Cl)cc(Cl)c3)c2N)cc1C)C(F)(F)F (centres unmarked) [I-A-Q2-200]	I-A-Q2-200: log P (HCOOH): 4.82	–
N#Cc1cc(-n2nc(C(F)(F)F)c(-c3cc(Cl)cc(Cl)c3)c2N)ccc1-n1cncn1 [I-A-Q1-024]	–	log P (HCOOH) [1]: I-A-Q1-024: log P (HCOOH): 3.90
Nc1c(-c2cc(Cl)cc(Cl)c2)c(C(F)(F)F)nn1-c1ccc(C(=O)NCC(F)(F)F)cn1 [I-A-Q2-101]	I-A-Q2-101: log P (HCOOH): 4.71	–
Cc1cc(-n2nc(C)c(-c3ccc(Cl)c(Cl)c3)c2N)ccc1C(=O)NCC(F)(F)C(F)F [I-A-Q2-323]	I-A-Q2-323: log P (HCOOH): 4.32	–
Nc1c(-c2cccc(Cl)c2)c(C(F)(F)F)nn1-c1ccc(C(=O)NCC(F)(F)F)cc1 [I-A-Q2-085]	I-A-Q2-085: log P (HCOOH): 3.47	–
Cc1cc(-n2nc(C)c(-c3ccc(F)cc3Cl)c2N)ccc1C(=O)NCc1ccccn1 [I-A-Q2-368]	I-A-Q2-368: log P (HCOOH): 1.79	–
Cc1cc(-n2nc(C)c(-c3ccc(Cl)cc3)c2N)ccc1C(=O)NCC(F)(F)C(F)F [I-A-Q2-325]	I-A-Q2-325: log P (HCOOH): 2.85	–

Structure (SMILES)	log P (HCOOH) (HCOOH)	further results
CCOC(=O)c1ccc(-n2nc(C(F)(F)F)c(-c3ccc(Cl)cc3Cl)c2N)cc1 [I-A-Q4-085]	–	log P (HCOOH) [2]: I-A-Q4-085: log P (HCOOH): 4.57
CC(NC(=O)c1ccc(-n2nc(C(F)(F)F)c(-c3ccc(Cl)c(F)c3)c2N)cc1)C(F)(F)F (centres unmarked) [I-A-Q2-169]	I-A-Q2-169: log P (HCOOH): 3.78	–
Cc1cc(-n2nc(C(F)(F)F)c(-c3cc(Cl)cc(Cl)c3)c2N)ccc1C(=O)NC(Cc1ccccn1)C(F)(F)F (centres unmarked) [I-A-Q2-049]	I-A-Q2-049: log P (HCOOH): 4.28	–
Cc1cc(-n2nc(C(F)(F)F)c(-c3ccccc3Cl)c2N)ccc1C(=O)NCC(F)(F)C(F)F [I-A-Q2-308]	I-A-Q2-308: log P (HCOOH): 3.23	–
Nc1c(-c2cc(Cl)cc(Cl)c2)c(C(F)(F)F)nn1-c1ccc(Cl)cn1 [I-A-Q4-014]	–	log P (HCOOH) [2]: I-A-Q4-014: log P (HCOOH): 5.76
CC(NC(=O)c1ccc(-n2nc(C(F)(F)F)c(-c3cccc(Cl)c3)c2N)cc1)c1ccccc1 (centres unmarked) [I-A-Q2-089]	I-A-Q2-089: log P (HCOOH): 3.89	–
Cc1cc(-n2nc(C(F)(F)F)c(-c3cc(Cl)cc(Cl)c3)c2[S+](C)[O-])ccc1C(=O)NCC(F)(F)C(F)F (single isomer, unassigned) [I-A-Q2-284]	I-A-Q2-284: log P (HCOOH): 4.32	–
Cc1cc(-n2nc(C(F)(F)F)c(-c3cc(Cl)cc(Cl)c3)c2N)ccc1C(=O)NC(c1ccccn1)C(F)(F)F (centres unmarked) [I-A-Q2-054]	I-A-Q2-054: log P (HCOOH): 2.31	–
Nc1c(-c2cc(Cl)cc(Cl)c2)c(C(F)(F)F)nn1-c1ccc(C(=O)NC2CC2)cn1 [I-A-Q2-106]	I-A-Q2-106: log P (HCOOH): 4.30	–
CNc1cc(-n2nc(C(F)(F)F)c(-c3cc(Cl)cc(Cl)c3)c2N)ccc1C(=O)O [I-A-Q4-120]	–	log P (HCOOH) [2]: I-A-Q4-120: log P (HCOOH): 4.11
Cc1cc(-n2nc(C(F)(F)F)c(-c3cc(Cl)cc(Cl)c3)c2N)ccc1C(=O)NC(C)Cc1ccccn1 (centres unmarked) [I-A-Q2-065]	I-A-Q2-065: log P (HCOOH): 2.72	–
Cc1cc(-n2nc(C(F)(F)F)c(-c3cc(Cl)cc(Cl)c3)c2N)ccc1C(=O)NC(c1ccc(C(F)(F)F)cc1)C(F)(F)F (centres unmarked) [I-A-Q2-242]	I-A-Q2-242: log P (HCOOH): 5.29	–
Cc1cc(-n2nc(C(F)(F)F)c(-c3cc(Cl)cc(Cl)c3)c2N)ccc1C(=O)NCC(F)F [I-A-Q2-017]	I-A-Q2-017: log P (HCOOH): 4.04	–
Cc1cc(-n2nc(C)c(-c3ccc(F)cc3)c2N)ccc1C(=O)NCC(F)(F)C(F)F [I-A-Q2-326]	I-A-Q2-326: log P (HCOOH): 2.51	–
Cc1cc(-n2nc(C(F)(F)F)c(-c3cc(Cl)cc(Cl)c3)c2N)ccc1C(=O)NC(CC(C)C)C(F)(F)F (centres unmarked) [I-A-Q2-198]	I-A-Q2-198: log P (HCOOH): 5.40	–
Cc1nn(-c2ccc(Cl)cn2)c(N)c1-c1ccc(Cl)c(Cl)c1 [I-A-Q4-060]	–	log P (HCOOH) [2]: I-A-Q4-060: log P (HCOOH): 5.02
Cc1cc(-n2nc(C(F)(F)F)c(-c3cc(Cl)cc(Cl)c3)c2N)ccc1C(=O)NC(c1cc(Cl)cc(Cl)c1)C(F)(F)F (centres unmarked) [I-A-Q2-043]	I-A-Q2-043: log P (HCOOH): 5.65	–
Cc1cc(-n2nc(C(F)(F)F)c(-c3cc(Cl)cc(Cl)c3)c2N)ccc1C(=O)NCCN1CCOCC1 [I-A-Q2-264]	I-A-Q2-264: log P (HCOOH): 1.99	–
Nc1c(Br)c(C(F)(F)F)nn1-c1ccc(C(=O)O)cc1 [XI-A-038]	XI-A-038: log P (HCOOH): 2.38	–
C#CCNC(=O)c1ccc(-n2nc(C(F)(F)F)c(-c3cc(Cl)cc(Cl)c3)c2N)cc1C [I-A-Q2-238]	I-A-Q2-238: log P (HCOOH): 3.78	–

Structure (SMILES)	log P (HCOOH) (HCOOH)	further results
N#Cc1cc(-n2nc(-c3ccccc3)c(-c3ccc(Cl)cc3)c2N)ccc1-n1cncn1 [I-A-Q1-063]	–	log P (HCOOH) [1]: I-A-Q1-063: log P (HCOOH): 3.53
CNC(=O)c1ccc(-n2nc(C(F)(F)F)c(-c3ccccc3Cl)c2N)cc1 [I-A-Q2-082]	I-A-Q2-082: log P (HCOOH): 2.46	–
COC(CNC(=O)c1ccc(-n2nc(C(F)(F)F)c(-c3cc(Cl)cc(Cl)c3)c2N)cc1C)OC [I-A-Q2-224]	I-A-Q2-224: log P (HCOOH): 3.78	–
Cc1cc(-n2nc(C)c(-c3cc(F)ccc3F)c2N)ccc1C(=O)NCc1ccccn1 [I-A-Q2-372]	I-A-Q2-372: log P (HCOOH): 1.61	–
CC(NC(=O)c1ccc(-n2nc(C(F)(F)F)c(-c3ccc(Br)cc3)c2N)cc1)C(F)(F)F (centres unmarked) [I-A-Q2-188]	I-A-Q2-188: log P (HCOOH): 3.78	–
Cc1cc(-n2nc(C(F)(F)c3cccc(Br)c3)c(-c3cc(Cl)cc(C(F)(F)F)c3)c2N)ccc1C(=O)NCC(F)(F)C(F)F [I-A-Q2-285]	I-A-Q2-285: log P (HCOOH): 4.95	–
Nc1c(-c2cc(Cl)cc(Cl)c2)c(C(F)(F)F)nn1-c1ccc(C(=O)O)cn1 [I-A-Q4-064]	–	log P (HCOOH) [2]: I-A-Q4-064: log P (HCOOH): 4.23
Nc1c(-c2ccc(Cl)c(Cl)c2)c(C(F)(F)F)nn1-c1ccc(C(=O)NCc2ccccn2)cc1 [I-A-Q2-158]	I-A-Q2-158: log P (HCOOH): 2.85	–
Cc1cc(-n2nc(C(F)(F)F)c(-c3cc(Cl)cc(Cl)c3)c2N)ccc1C(=O)O [I-A-Q4-010, 4-[5-Amino-4-(3,5-dichlorophenyl)-3-trifluoromethylpyrazol-1-yl]-2-methylbenzoic acid]	–	chromatographic logP [1]: 4.04
Cc1nn(-c2ccc(Cl)cn2)c(N)c1-c1cc(Cl)ccc1Cl [I-A-Q4-030]	–	log P (HCOOH) [2]: I-A-Q4-030 :log P (HCOOH): 4.57
Cc1cc(-n2nc(C(F)(F)F)c(-c3ccc(F)c(F)c3)c2N)ccc1C(=O)NCc1ccccn1 [I-A-Q2-355]	I-A-Q2-355: log P (HCOOH): 2.50	–
N#Cc1cc(-n2nc(C(F)(F)F)c(-c3cc(F)c(F)c(F)c3)c2N)ccc1-n1cncn1 [I-A-Q1-041]	–	log P (HCOOH) [1]: I-A-Q1-041: log P (HCOOH): 3.19
CC(C)NC(=O)c1ccc(-n2nc(C(F)(F)F)c(-c3cc(Cl)cc(Cl)c3)c2N)cc1 [I-A-Q2-135]	I-A-Q2-135: log P (HCOOH): 4.06	–
FC(F)(F)c1nn(-c2ccc(I)cc2)c(Br)c1-c1cc(Cl)cc(Cl)c1 [I-A-Q4-017]	–	log P (HCOOH) [2]: I-A-Q4-017: log P (HCOOH): 6.71
Cc1cc(-n2nc(C(F)(F)F)c(-c3cc(Cl)cc(Cl)c3)c2N)ccc1C(=O)N(C)C(C)c1ccccn1 (centres unmarked) [I-A-Q2-210]	I-A-Q2-210: log P (HCOOH): 4.28	–
CC(NC(=O)c1ccc(-n2nc(C(F)(F)F)c(-c3cccc(Cl)c3)c2N)cc1)C(F)(F)F (centres unmarked) [I-A-Q2-083]	I-A-Q2-083: log P (HCOOH): 3.68	–
Cc1cnc(CNC(=O)c2ccc(-n3nc(C(F)(F)F)c(-c4cc(Cl)cc(Cl)c4)c3N)cc2C)c(C)c1 [I-A-Q2-038]	I-A-Q2-038: log P (HCOOH): 3.11	–
CSc1c(-c2cc(Cl)cc(Cl)c2)c(C(F)(F)F)nn1-c1ccc(C(=O)NCc2ccccn2)c(C)c1 [I-A-Q2-028]	I-A-Q2-028: log P (HCOOH): 4.35	–
